Assay results as given in patent US20250163057A1, “DCN-1 MODULATING COMPOUNDS AND METHODS OF USE THEREOF” (Cellarity, Inc., priority 2023, published 2025).
Like-named read-outs stand apart in the source and are kept apart here.

Tests used:
[1] = test system: Cullin-3 (CUL3) neddylation; assay: AlphaLISA assay for Cullin-3 (CUL3) neddylation in TF 1 cells; assay type: cell-based; settings: 3 hours treatment
Method in brief: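 Neddylated CUL3 was quantified by AlphaLISA in lysates of TF 1 cells exposed for 3 h to test compound in IMDM without supplements. Percent inhibition set between vehicle and 1 μM DI-1548 positive control; IC50 derived by Hill-equation fitting of dose-response curves.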

[2] = molecular target: DCN1 (DCUND1) protein PONY domain (Homo sapiens (Human), UniProt Q96GG9); assay: TR-FRET assay, DCN1 binding with FAM-labeled probe
Method in brief: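 Binding was read as the TR-FRET ratio between a FAM-tagged inhibitor probe and Tb-labeled biotinylated E. coli-expressed DCN1 PONY domain, measured 1, 5 and 24 h after compound addition. The two setups used 5 nM protein/20 nM FAM-probe or 0.31 nM protein/900 nM total probe (100 nM labeled), in TritonX buffer with 200 mM NaCl.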

DCN1 protein = DCN1 protein (Homo sapiens (Human), UniProt Q96GG9); assay: Intact Protein MS Analysis with the RapidFire-TOF System (covalent adduct formation); assay type: binding; settings: MS Emax; 400 nM DCN1, 3 hours at room temperature
Description: An MS assay was performed to evaluate the ability of the compounds to covalently modify DCN-1.
DCN1 protein, His-TEV-DCN1, were expressed in E. Coli. The His-tagged protein was first purified with an Ni-NTA column. The His-tag was cleaved using His-tag TEV protease and the His-tags were removed using a second Ni-NTA column. Protein purity was verified with SDS-PAGE and intact MS. DCN1 was dissolved in a buffer containing 25 mM Tris-HCl, 200 mM NaCl, and 1 mM DTT at 400 nM. 11 concentrations of compounds were added to the DCN1 solution and incubated at room temperature for 3 hours, unless otherwise specified. The reaction plates were quenched by adding 0.2% formic acid. […] The cartridge was re-equilibrated with loading buffer for 1 second before collection of the next sample. The Q-TOF was operated in TOF-only positive ionization mode set to the following parameters: Gas Temp=350 C, Drying Gas=7 l/min, Nebulizer=50 psi, Sheath Gas Temp=400 C, Sheath Gas Flow=12 l/min, Vcap=4000 V, Nozzle Voltage=1000 V, Fragmentor=125 V, Skimmer=65 V and Oct 1 RF Vpp=750V. Raw MS data files were deconvoluted and analyzed using the Agilent MassHunter Bioconfirm software package to identify both parent protein and expected compound adduct mass signatures.

[3] = 24 hr after treatment with compound, read-out: TR FRET IC50 24 hr
[4] = read-out: TR FRET IC50 1 hr, 1 hr after treatment with compound
[5] = TR FRET IC50 1 hr (nM), 1 hr after treatment with compound

DCN1 protein, sequence (Q96GG9 whole entry): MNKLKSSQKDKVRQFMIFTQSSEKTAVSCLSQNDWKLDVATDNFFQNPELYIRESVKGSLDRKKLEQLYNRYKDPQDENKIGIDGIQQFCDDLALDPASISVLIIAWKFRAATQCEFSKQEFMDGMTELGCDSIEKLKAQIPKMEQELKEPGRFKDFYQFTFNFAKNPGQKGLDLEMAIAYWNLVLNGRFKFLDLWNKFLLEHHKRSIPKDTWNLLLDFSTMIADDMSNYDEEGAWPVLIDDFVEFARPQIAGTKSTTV
DCN1 (DCUND1) protein PONY domain, sequence (Q96GG9 60-248): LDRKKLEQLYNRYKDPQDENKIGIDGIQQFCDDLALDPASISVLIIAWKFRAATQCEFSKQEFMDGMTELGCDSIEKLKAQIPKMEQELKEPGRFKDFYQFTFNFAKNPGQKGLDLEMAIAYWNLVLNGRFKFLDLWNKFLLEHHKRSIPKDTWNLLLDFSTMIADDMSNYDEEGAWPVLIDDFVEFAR

| Compound | IC50 ([1]; Homo sapiens, TF-1, 3 h) | IC50 [2, 3] | IC50 [2, 4] | % Adduct Formation (DCN1 protein) | IC50 [2, 5] | IC50 [1] |
| --- | --- | --- | --- | --- | --- | --- |
| C=C(CN1C[C@@H]2C[C@H]1CO2)C(=O)NCc1nn(-c2ccccc2)c2c1[C@H](c1ccc(F)cc1)[C@H](NC(=O)c1cccc(C(F)(F)F)c1)C(=O)N2CC (mixture of isomers) [Compound I-12] | ≤ 100 nM | ≤ 200 nM | ≤ 200 nM | +++ (MS Emax % adduct formation greater than 80.0 and less than or equal to 100.0) | – | – |
| C=C(C)C(=O)N[C@@H](C)c1nn(-c2ccccc2)c2c1[C@H](c1ccc(F)cc1)[C@H](NC(=O)c1cccc(C(F)(F)F)c1)C(=O)N2CC (mixture of isomers) [Compound I-16] | – | 1000 to 3000 nM | – | + (MS Emax % adduct formation greater than or equal to 0.0 and less than or equal to 30.0) | 200 to 1000 nM | – |
| C/C=C/C(=O)N[C@@H](C)c1nn(-c2ccccc2)c2c1[C@H](c1ccc(F)cc1)[C@H](NC(=O)c1cccc(C(F)(F)F)c1)C(=O)N2CC (mixture of isomers) [Compound I-23] | – | 1000 to 3000 nM | – | + (MS Emax % adduct formation greater than or equal to 0.0 and less than or equal to 30.0) | 1000 to 3000 nM | – |
| CCN1C(=O)[C@@H](NC(=O)c2cccc(C(F)(F)F)c2)[C@@H](c2ccc(F)cc2)c2c([C@@H](CN(C)C)NC#N)nn(-c3ccccc3)c21 (mixture of isomers) [Compound I-272] | ≤ 100 nM | ≤ 200 nM | ≤ 200 nM | +++ (MS Emax % adduct formation greater than 80.0 and less than or equal to 100.0) | – | – |
| CCN1C(=O)[C@@H](NC(=O)c2cccc(C(F)(F)F)c2)[C@@H](c2ccc(F)cc2)c2c(C(=O)N3CCOC[C@H]3C#N)nn(-c3ccccc3)c21 (mixture of isomers) [Compound I-295] | – | ≤ 200 nM | – | +++ (MS Emax % adduct formation greater than 80.0 and less than or equal to 100.0) | 1000 to 3000 nM | ≤ 100 nM |
| CCN1C(=O)[C@@H](NC(=O)c2cccc(C(F)(F)F)c2)[C@@H](c2ccc(F)cc2)c2c(C/C=C/C(=O)O)nn(-c3ccccc3)c21 (racemic) [Compound I-83, rac-(E)-4-((4R,5R)-7-ethyl-4-(4-fluorophenyl)-6-oxo-1-phenyl-5-(3-(trifluoromethyl)benzamido)-4,5,6,7-tetrahydro-1H-pyrazolo[3,4-b]pyridin-3-yl)but-2-enoic acid] | – | 1000 to 3000 nM | – | + (MS Emax % adduct formation greater than or equal to 0.0 and less than or equal to 30.0) | 1000 to 3000 nM | – |
| CC#CC(=O)N(C)Cc1nn(-c2ccccc2)c2c1[C@H](c1ccc(F)cc1)[C@H](NC(=O)c1cccc(C(F)(F)F)c1)C(=O)N2CC (racemic) [Compound I-90] | – | > 3000 nM | > 3000 nM | + (MS Emax % adduct formation greater than or equal to 0.0 and less than or equal to 30.0) | – | – |
| CCN1C(=O)[C@@H](NC(=O)c2cccc(C(F)(F)F)c2)[C@@H](c2ccc(F)cc2)c2c(C#N)nn(-c3ccccc3)c21 (racemic) [Compound I-115, rac-N-((4R,5R)-3-cyano-7-ethyl-4-(4-fluorophenyl)-6-oxo-1-phenyl-4,5,6,7-tetrahydro-1H-pyrazolo[3,4-b]pyridine-5-yl)-3-(trifluoromethyl)benzamide] | – | > 3000 nM | – | + (MS Emax % adduct formation greater than or equal to 0.0 and less than or equal to 30.0) | > 3000 nM | – |
| C/C=C/C(=O)NCc1nn(-c2ccccc2)c2c1[C@H](c1ccc(F)cc1)[C@H](NC(=O)c1cccc(C(F)(F)F)c1)C(=O)N2CC (racemic) [Compound I-123] | – | 200 to 1000 nM | – | + (MS Emax % adduct formation greater than or equal to 0.0 and less than or equal to 30.0) | 200 to 1000 nM | – |
| CCN1C(=O)[C@@H](NC(=O)c2cccc(C(F)(F)F)c2)[C@@H](c2ccc(F)cc2)c2c(C/C=C/C(=O)OC)nn(-c3ccccc3)c21 (racemic) [Compound I-131, rac-methyl (E)-4-((4R,5R)-7-ethyl-4-(4-fluorophenyl)-6-oxo-1-phenyl-5-(3-(trifluoromethyl)benzamido)-4,5,6,7-tetrahydro-1H-pyrazolo[3,4-b]pyridin-3-yl)but-2-enoate] | – | 200 to 1000 nM | – | + (MS Emax % adduct formation greater than or equal to 0.0 and less than or equal to 30.0) | 1000 to 3000 nM | – |
| C=C(C)C(=O)N(C)Cc1nn(-c2ccccc2)c2c1[C@H](c1ccc(F)cc1)[C@H](NC(=O)c1cccc(C(F)(F)F)c1)C(=O)N2CC (racemic) [Compound I-156] | – | 200 to 1000 nM | – | + (MS Emax % adduct formation greater than or equal to 0.0 and less than or equal to 30.0) | 200 to 1000 nM | – |
| CCN1C(=O)[C@@H](NC(=O)c2cccc(C(F)(F)F)c2)[C@@H](c2ccc(F)cc2)c2c(NS(=O)(=O)CCl)nn(-c3ccccc3)c21 (racemic) [Compound I-163] | – | ≤ 200 nM | ≤ 200 nM | + (MS Emax % adduct formation greater than or equal to 0.0 and less than or equal to 30.0) | – | – |
| CCN1C(=O)[C@@H](NC(=O)c2cccc(C(F)(F)F)c2)[C@@H](c2ccc(F)cc2)c2c(CN(C)C(=O)[C@H](C)Cl)nn(-c3ccccc3)c21 (stereo in doubt) [Compound I-30] | – | 1000 to 3000 nM | > 3000 nM | + (MS Emax % adduct formation greater than or equal to 0.0 and less than or equal to 30.0) | – | – |
| CCN1C(=O)[C@@H](NC(=O)c2cccc(C(F)(F)F)c2)[C@@H](c2ccc(F)cc2)c2c(CN(C)C(=O)[C@H](C)Cl)nn(-c3ccccc3)c21 (stereo in doubt) [Compound I-33] | – | 1000 to 3000 nM | – | + (MS Emax % adduct formation greater than or equal to 0.0 and less than or equal to 30.0) | 1000 to 3000 nM | – |
| CCN1C(=O)[C@@H](NC(=O)c2cccc(C(F)(F)F)c2)[C@@H](c2ccc(F)cc2)c2c([C@@H](C)NC(=O)C(C)Cl)nn(-c3ccccc3)c21 (stereo in doubt) [Compound I-212] | – | – | – | + (MS Emax % adduct formation greater than or equal to 0.0 and less than or equal to 30.0) | – | – |
| CCN1C(=O)[C@@H](NC(=O)c2cccc(C(F)(F)F)c2)[C@@H](c2ccc(F)cc2)c2c([C@@H](C)NC(=O)C(F)Cl)nn(-c3ccccc3)c21 (stereo in doubt) [Compound I-239] | – | – | – | + (MS Emax % adduct formation greater than or equal to 0.0 and less than or equal to 30.0) | – | – |
| CCN1C(=O)[C@@H](NC(=O)c2cccc(C(F)(F)F)c2)[C@@H](c2ccc(F)cc2)c2c(C(=O)N3CCCC[C@@H]3C#N)nn(-c3ccccc3)c21 [Compound I-121] | – | ≤ 200 nM | ≤ 200 nM | ++ (MS Emax % adduct formation greater than 30.0 and less than or equal to 80.0) | – | – |
| CCN1C(=O)[C@@H](NC(=O)c2cccc(C(F)(F)F)c2)[C@@H](c2ccc(F)cc2)c2c(CN(C)C(=O)C(F)Cl)nn(-c3ccccc3)c21 (stereo partly shown) [Compound I-145] | – | – | – | + (MS Emax % adduct formation greater than or equal to 0.0 and less than or equal to 30.0) | – | – |
| C=C(F)C(=O)NCc1nn(-c2ccccc2)c2c1[C@H](c1ccc(F)cc1)[C@H](NC(=O)c1cccc(C(F)(F)F)c1)C(=O)N2CC [Compound I-240] | – | – | – | + (MS Emax % adduct formation greater than or equal to 0.0 and less than or equal to 30.0) | – | – |
